The values below are quoted from earlier work in patent EP2691395B1, “PROCESSES FOR PREPARING TOFACITINIB SALTS” (ratiopharm GmbH, priority 2011, dated 2012).

For this series the following is noted: acids listed as possible first acid.
As to `O=C(O)CCO` [3-hydroxypropanoic acid], the pKa result is given as “about 4.51”.

In the case of `O=C(O)c1cccc(O)c1` [m-hydroxybenzoic acid], the pKa result is given as “about 4.06”.

`O=C(O)c1cc(=O)[nH]c(=O)[nH]1` [orotic acid]: the pKa entry is on record as “about 5.85”.

In the case of `C=CCCCCCCCCC(=O)O` [undecylenic acid], the pKa result is “about 4.9”.

For `CCCCCCCCCCCCCCCCCC(=O)O` [stearic acid], the pKa entry was “about 4.9”.

As to `O=C(O)[C@H](O)[C@@H](O)[C@H](O)[C@H](O)CO` [D-gluconic acid], the pKa result is recorded as “about 3.76”.

As for `CCCCCCCCCCCCCCCC(=O)O` [palmitic acid], the pKa result is given as “about 4.9”.

On to `CCCCCCCC/C=C\CCCCCCCC(=O)O` [oleic acid], for which the pKa result is reported as “about 4”.

Take `CCCCCCCCCCCC(=O)O` [lauric acid]: the pKa entry is on record as “about 4.9”.

For the molecule `O=C(O)/C=C\c1ccccc1` [cis-cinnamic acid], the pKa result is given as “about 3.89”.

Take `CC(O)CC(=O)O` (stereo not drawn) [3-hydroxybutanoic acid]: the pKa entry is “about 4.70”.

Turning to `O=C(O)CCCC(=O)O` [glutaric acid], the pKa entry is on record as “about 4.31”.

In the case of `O=C(O)O` [carbonic acid], the pKa result was “about 6.46”.

Regarding `O=c1[nH]c(=O)c2[nH]c(=O)[nH]c2[nH]1` [uric acid], the pKa entry is “about 3.89”.

With `CC1(C(=O)O)CCC(C(=O)O)C1(C)C` (stereo not drawn) [(+)-camphoric acid], the pKa entry is given as “about 4.72”.

With `CCCCCCCC(=O)O` [caprylic or octanoic acid], the pKa result is on record as “about 4.91”.

Regarding `CC(CC(=O)O)C(=O)O` (stereo not drawn) [methylsuccinic acid], the pKa entry is given as “about 4.13”.

As for `O=C(O)c1ccc(O)cc1` [p-hydroxybenzoic acid], the pKa result is “about 4.48”.

For `CCCCCC(=O)O` [hexanoic or caproic acid], the pKa result is recorded as “about 4.85”.

Consider `O=C(O)CCCO` [4-hydroxybutanoic acid], for which the pKa entry is recorded as “about 4.72”.

In the case of `O=C(O)CNC(=O)c1ccccc1` [hippuric acid], the pKa entry was “about 3.55”.

For the molecule `O=C(O)Cc1ccccc1` [phenylacetic acid], the pKa entry was “about 4.28”.

Regarding `CCCCC(=O)O` [pentanoic acid], the pKa entry is recorded as “about 4.84”.

`CC(=O)Nc1ccc(C(=O)O)cc1` [4-acetamidobenzoic acid]: the pKa entry is given as “about 4.3”.
